US6528251B2, “Method of managing the chemotherapy of patients who are HIV positive based on the phenotypic drug sensitivity of human HIV strains” (Virco N.V., priority 1996, dated 2003)
Like-named read-outs stand apart in the source and are kept apart here.

Experiments:
Assay type in all cases: cell-based, HIV-1
[1] = system: Recombinant wild type HIV strain recIIIB; assay: Antiviral MT4/MTT assay with reference virus recIIIB; conditions: read-out: Anti-HIV-1 activity IC50 (μM) recIIIB ref (2)
Experimental: (§1) After titration of the new viruses, the stocks were used for antiviral experiments in the presence of serial dilutions of different HIV inhibitors. Titres of the harvested supematants were determined by limited serial dilution titration of virus in MT4 cells.
(§2) Viruses with a useful titre were used in antiviral experiments. For this purpose, 96-well microtitre plates were filled with 100μl of complete culture medium. Subsequently, stock solutions of compounds were added in 25 μl volumes to series of duplicate wells. HIV- and mock-infected cell samples were included for each drug (or drug combination). Exponentially growing MT4 cells were then transferred to the microtitre plates at a density of 150,000 cells/ml. The cell cultures were then incubated at 37° C. in a humidified atmosphere of 5% CO2. Five days after infection, the viability of the mock- and HIV-infected cells was examined spectrophotometrically by the M1T method (Pauwels, R. et al. J. Virol. Meth. (1988), 20: 309-321) as described in Section 6 below.
(§3) To each well of the microtiter plates, 20 μl of a solution of MTT (7.5 mg/ml in PBS) was added. The plates were further incubated at 37° C. for 1 h. Then, 150 μl of medium was removed without disturbing the MT4 cell clusters containing the formazan crystals. Solubilization of the formazan crystals was achieved by adding 100 μl 5% Triton X-100 in acidified isopropanol (5 ml concentrated HCl per liter solvent). Complete dissolution of the formazan crystals was obtained after the plates had been placed on a plate shaker for 10 min. Finally the absorbances were read at two wavelengths (540 and 690 nm). From these optical density (OD) data, 50% inhibitory (IC50) and 50% cytotoxic (CC50) concentrations were derived.

[2] = system: recombinant virus from patient viral RNA (Example 11); assay: Recombinant virus assay (MT4/MTT), patient of Example 11 (therapy history RT and protease inhibitors); conditions: for susceptibility of the patient's HIV strain (in words): Example 11 patient, conclusion from Table 7; for IC50: Human immunodeficiency virus 1, Table 7, Example 11 patient virus; for ratio (1)/(2): Table 7, patient mean IC50 / recIIIB IC50, Example 11
Experimental: (§4) RNA was isolated from 100 μl of plasma according to the method described by Boom, R. et al. (1990, supra), and was reverse transcribed with the GeneAmp reverse transcriptase kit (Perkin Elmer) as described by the manufacturer and using an HIV-1 specific downstream primer (OUT3: 5′-CATTGCTCTCCAATTACTGTGATATTTCTCATC-3′; SEQ ID NO: 1). PCR on reverse transcribed RNA was performed with inner and outer primers as described by Kellam, P. and Larder, B. A. (1994, supra). After chloroform extraction and centrifugation on Centricon 100 columns or centrifugation on anion-exchange spin columns (Quiagen), the isolated PCR product was ready for use in the transfection reactions.
(§5) MT4 cells were subcultured at a density of 250,000 cells/ml before transfection (exponential growth phase). Cells were pelleted and resuspended in phosphate buffered saline (PBS) at a concentration of […]. A 0.8 ml portion (2.5 10E6 cells/ml) was used for each transfection. Transfection was performed with the Bio-Rad Gene pulser making use of 0.4 cm electrode cuvettes. Cells were electroporated in the presence of […] of linearised pHIVΔRT plasmid and approximately 5 μg of RT PCR product at 250SF and 300 V, followed by a 30-min incubation at room temperature. Subsequently, 10 ml of fresh culture medium was added to the cell suspension and incubation was performed at 37° C. in a humidified atmosphere of 5% CO2.
(§6) During 7 to 10 days following the transfection, cells were monitored for the appearance of cytopathogenic effect (CPE). In the absence thereof, cells were subcultured in different flasks. Subsequently, culture supernatants of transfected cells were used to create a stock of recombinant virus and stored in 1.5 ml aliquots at −70° C.
as §1, §2, §3
An HIV infected patient with a therapy history including RT and protease inhibitors donated plasma whose susceptibility to a number of RT inhibitors and protease inhibitors was determined according to the protocol set out in Example 1. Recombinant wild type HIV strain recIIIb was used as a reference HIV virus.

[3] = system: recombinant virus from patient viral RNA (Example 12); assay: Recombinant virus assay (MT4/MTT), patient of Example 12 (therapy history RT and protease inhibitors); conditions: for susceptibility of the patient's HIV strain (in words): Example 12 patient, conclusion from Table 8; for IC50: Human immunodeficiency virus 1, Table 8, Example 12 patient virus; for ratio (1)/(2): Table 8, patient mean IC50 / recIIIB IC50, Example 12
Experimental: as §4, §5, §6, §1, §2, §3
An HIV infected patient with a therapy history including RT and protease inhibitors donated plasma whose susceptibility to a number of RT inhibitors and protease inhibitors was determined according to the protocol set out in Example 1.

[4] = system: recombinant virus from patient viral RNA (Example 10, drug-naive patient); assay: Recombinant virus assay (MT4/MTT), drug-naive patient of Example 10; conditions: for IC50: Human immunodeficiency virus 1, Table 6, Example 10 patient virus; for ratio (1)/(2): Table 6, patient mean IC50 / recIIIB IC50, Example 10
Experimental: as §4, §5, §6, §1, §2, §3
A drug-naive HIV-infected patient donated plasma whose susceptibility to a number of RT inhibitors and protease inhibitors was determined according to the protocol set out in Example 1. Recombinant wild type HIV strain recIIIB was used as a reference HIV virus.

[5] = system: recombinant virus from patient viral RNA (Example 9); assay: Recombinant virus assay (MT4/MTT), patient of Example 9 (multiple nucleoside analogue RT-inhibitors); conditions: for IC50: Human immunodeficiency virus 1, Table 5, Example 9 patient virus; for ratio (1)/(2): Table 5, patient mean IC50 / recIIIB IC50, Example 9
Experimental: as §4, §5, §6, §1, §2, §3
An HIV-infected patient with a therapy history including multiple nucleoside analogue RT-inhibitors donated plasma whose susceptibility to a number of RT inhibitors was determined according to the protocol set out in Example 1. Recombinant wild type HIV strain recIIIB was used as a reference HIV virus.

[6] = system: recombinant virus from patient viral RNA (Example 7, drug-naive patient); assay: Recombinant virus assay (MT4/MTT), drug-naive patient of Example 7; conditions: for IC50: Human immunodeficiency virus 1, Table 3, Example 7 patient virus; for ratio (1)/(2): Table 3, patient mean IC50 / recIIIB IC50, Example 7
Experimental: as §4, §5, §6, §1, §2, §3
A drug-naive HIV-infected patient donated plasma whose susceptibility to a number of RT inhibitors was determined according to the protocol set out in Example 1. Recombinant wild type HIV strain recIIIB was used as a reference HIV virus.

[7] = system: recombinant virus from patient viral RNA (Example 8); assay: Recombinant virus assay (MT4/MTT), patient of Example 8 (therapy history AZT, 3TC and loviride); conditions: for IC50: Human immunodeficiency virus 1, Table 4, Example 8 patient virus; for ratio (1)/(2): Table 4, patient mean IC50 / recIIIB IC50, Example 8
Experimental: as §4, §5, §6, §1, §2, §3
An HIV-infected patient with a therapy history including AZT, 3TC and loviride donated plasma whose susceptibility to a number of RT inhibitors was determined according to the protocol set out in Example 1. Recombinant wild type HIV strain recIIIB was used as a reference HIV virus.

[8] = system: recombinant virus from patient viral RNA (Example 5, 3TC resistant HIV strains); assay: Recombinant virus assay (MT4/MTT), patient of Example 5 (AZT, then AZT+3TC therapy); conditions: for IC50: Human immunodeficiency virus 1, Table 1, Example 5 patient virus; for ratio (1)/(2): Table 1, patient mean IC50 / recIIIB IC50, Example 5
Experimental: as §4, §5, §6, §1, §2, §3
An HIV infected patient who received AZT from December 1989 until an undocumented later date, and switched to a combined chemotherapy of AZT+3TC (1:1) from February 1994 until October 1995 donated plasma whose susceptibility to a number of RT inhibitors was determined according to the above described protocol of Example 1. Recombinant wild type HIV strain recIIIB was used in said protocol as a reference HIV virus.

[9] = Human immunodeficiency virus 1, Table 6, reference run of Example 10
[10] = Human immunodeficiency virus 1, Table 7, reference run of Example 11
[11] = Human immunodeficiency virus 1, Table 8, reference run of Example 12
[12] = MT4 cells, read-out: Anti-HIV-1 activity IC50 (μM) Exp. 1
[13] = MT4 cells, read-out: Anti-HIV-1 activity IC50 (μM) Exp. 2
[14] = mean, read-out: Anti-HIV-1 activity IC50 (μM) Mean (1)
[15] = Human immunodeficiency virus 1, Table 1, reference run of Example 5
[16] = Human immunodeficiency virus 1, Table 3, reference run of Example 7
[17] = Human immunodeficiency virus 1, Table 4, reference run of Example 8
[18] = Human immunodeficiency virus 1, Table 5, reference run of Example 9
[19] = mean of Exp. 1 and 2, read-out: Anti-HIV-1 activity IC50 (μM) Mean (1)

Row | SMILES | IC50 [1, 9] [µM] | IC50 [1, 10] [µM] | IC50 [1, 11] [µM] | susceptibility of the patient's HIV strain (in words) [2] | IC50 [2, 12] [µM] | IC50 [2, 13] [µM] | IC50 [2, 14] [µM] | ratio (1)/(2) [2] | susceptibility of the patient's HIV strain (in words) [3] | IC50 [3, 12] [µM] | IC50 [3, 14] [µM] | ratio (1)/(2) [3] | IC50 [4, 12] [µM] | IC50 [4, 13] [µM] | IC50 [4, 14] [µM] | ratio (1)/(2) [4] | IC50 [1, 15] [µM] | IC50 [1, 16] [µM] | IC50 [1, 17] [µM] | IC50 [1, 18] [µM] | further results
1 | CC(C)(C)NC(=O)[C@@H]1CN(Cc2cccnc2)CCN1C[C@@H](O)C[C@@H](Cc1ccccc1)C(=O)N[C@H]1c2ccccc2C[C@H]1O [indinavir] | 0.016 | 0.027 | 0.016 | decreased susceptibilty | 0.229 | 0.416 | 0.323 | 12 | decreased susceptibility | 0.124 | 0.124 | 8 | 0.013 | 0.013 | 0.013 | 0.8 |  |  |  |  | 
2 | CC(=O)c1ccc(C)cc1NC(C(N)=O)c1c(Cl)cccc1Cl (stereo not shown) [loviride] |  |  |  |  |  |  |  |  |  |  |  |  |  |  |  |  | 0.05 | 0.024 | 0.037 | 0.065 | IC50 [5, 12]: 0.064 µM; IC50 [5, 13]: 0.058 µM; IC50 [5, 14]: 0.061 µM; ratio (1)/(2) [5]: 0.9; IC50 [6, 12]: 0.035 µM; IC50 [6, 13]: 0.025 µM; IC50 [6, 14]: 0.03 µM; ratio (1)/(2) [6]: 1; IC50 [7, 12]: > 100 µM; IC50 [7, 13]: > 100 µM; IC50 [7, 14]: > 100 µM; ratio (1)/(2) [7]: >2717; IC50 [8, 12]: 0.1 µM; IC50 [8, 13]: 0.12 µM; IC50 [8, 19]: 0.11 µM; ratio (1)/(2) [8]: 2
3 | CC(C)c1nc(CN(C)C(=O)N[C@H](C(=O)N[C@@H](Cc2ccccc2)C[C@H](O)[C@H](Cc2ccccc2)NC(=O)OCc2cncs2)C(C)C)cs1 [ritonavir] | 0.033 | 0.062 | 0.033 | decreased susceptibilty | 1.2 | 1.74 | 1.47 | 24 | decreased susceptibility | 1.61 | 1.57 | 47 | 0.022 | 0.017 | 0.019 | 0.6 |  |  |  |  | IC50 [3, 13]: 1.53 µM
4 | CC(C)=CCN1Cc2c(Cl)ccc3[nH]c(=S)n(c23)C[C@@H]1C [tivirapine] |  |  |  |  |  |  |  |  |  |  |  |  |  |  |  |  | 0.01 | 0.021 | 0.021 | 0.042 | IC50 [5, 12]: 0.052 µM; IC50 [5, 13]: 0.043 µM; IC50 [5, 14]: 0.048 µM; ratio (1)/(2) [5]: 1; IC50 [6, 12]: 0.042 µM; IC50 [6, 13]: 0.049 µM; IC50 [6, 14]: 0.046 µM; ratio (1)/(2) [6]: 2; IC50 [7, 12]: 1.63 µM; IC50 [7, 13]: 1.6 µM; IC50 [7, 14]: 1.61 µM; ratio (1)/(2) [7]: 78; IC50 [8, 12]: 0.019 µM; IC50 [8, 13]: 0.018 µM; IC50 [8, 19]: 0.019 µM; ratio (1)/(2) [8]: 1.5
